We go through ten compounds from patent publication US5182387A, “Bis-dibenzoazepine compounds” (Merrell Dow Pharmaceuticals Inc., priority 1991, dated 1993).

Converted amounts (≈) assume the structure as drawn. Structures can show the parent of a compound that is named as a salt. Where two headings read alike, the source gives them in different places.

The test system of experiment [1] is multidrug resistant Plasmodium falciparum clone W-2. Kind of experiment: antimalarial activity using multidrug resistant Plasmodium falciparum clone W-2. It is filed as cell-based. The conditions noted are these: read-out: IC50, ng/ml CLONE W-2. The method, then: (§1) Referring to Table 2, the antimalarial activity of compounds of formula 1 were tested using the multidrug resistant Plasmodium falciparum clone W-2. The methods for the growth of the malaria parasite, the testing of drugs for antimalarial effects and the clone are described in Science 242, 1301-1303 1988.

Experiment [2] shares this test system. Kind of experiment: reversal of the chloroquine resistance in clone W-2. It is filed as cell-based. The method, then:
as §1

Experiment [3] deals with chloroquine-sensitive strain of Plasmodium falciparum (clone D6). Kind of experiment: antimalarial activity against chloroquine-sensitive strain of Plasmodium falciparum (clone D6). It is filed as cell-based. The method, then: As shown by Table 1, the compounds of the present invention have antimalarial activity on their own without other antimalarial agents. This antimalarial activity can be tested using a number of methods. For example, the compounds of formula 1 listed in Table 1 were tested for antimalarial activity against chloroquine-sensitive strain of Plasmodium falciparum (clone D6).
The methods for the growth of the malaria parasite, the testing of drugs for antimalarial effects and the clone are described in Science 242, 1301-1303 1988.

Experiment [4] deals with chloroquine-resistant Plasmodium falciparum. Kind of experiment: synergistic effect with chloroquine, isobologram analysis. It is filed as cell-based. The conditions noted are these: chloroquine-resistant P. falciparum, data not shown. The method, then:
Isobologram analysis was carried out according to the method of Martin, et al., (1987) Science 235, 899-901 and Berenbaum, (1978) Journal of Infectious Diseases 137, 122-130 (data not shown).

The test system of experiment [5] is Plasmodium falciparum. The conditions noted are these: as described in Science 242, 1301-1303 1988; cited from earlier work.
The mark [6] stands for this setting: 50% reversal of the chloroquine resistance in clone W-2, read-out: Conc. in ng/ml for 50% Reversal of chloroquine.
[7] abbreviates: chloroquine-sensitive clone D6, read-out: IC50, ng/ml CLONE D6.
Where [8] appears, read: D6, read-out: IC50, ng/ml CLONE D6.

Take `CN(CCCN1c2ccccc2CCc2ccccc21)CC(=O)N(C)CCCN1c2ccccc2CCc2ccccc21` [Example 1, N,N'-Bis[3-(10,11-dihydro-5H-dibenzo[b,f]azepino)propyl]-N,N'-dimethylacetamide Oxalate]: the IC50 in experiment [1] was 3570 ng/mL. In addition, the EC50 in experiment [2] (setting [6]) is greater than 200 ng/mL.

Turning to `CN(CCCN1c2ccccc2CCc2ccccc21)CCN(C)CCCN1c2ccccc2CCc2ccccc21` [Example 2, N,N'-Bis[3-(10,11-dihydro-5H-dibenzo[b,f]azepino)propyl]-N,N'-dimethylethanediamine Maleate], the IC50 in experiment [1] was 1510 ng/mL. The EC50 in experiment [2] (setting [6]) is greater than 200 ng/mL.

Regarding `CN(CCCN(C)CCCN1c2ccccc2CCc2ccccc21)CCCN1c2ccccc2CCc2ccccc21` [Example 3, N,N'-Bis[3-(10,11-dihydro-5H-dibenzo[b,f]azepino)propyl]-N,N'-dimethylpropanediamine Maleate], the IC50 in experiment [1] came out at 385 ng/mL. The EC50 in experiment [2] (setting [6]) turned out to be 72 ng/mL.

Take `CN(CCCCN(C)CCCN1c2ccccc2CCc2ccccc21)CCCN1c2ccccc2CCc2ccccc21` [Example 4, N,N'-Bis[3-(10,11-dihydro-5H-dibenzo[b,f]azepino)propyl]-N,N'-dimethylbutanediamine Fumarate]: the IC50 in experiment [3] (setting [7]) was determined as 240 ng/mL; in experiment [1], 56 ng/mL. The EC50 in experiment [2] (setting [6]) came out at 14 ng/mL. The “synergistic effect with antimalarial agents” value in experiment [4] is given as “synergistic effect with chloroquine”.

Take `CN(CCCCCN(C)CCCN1c2ccccc2CCc2ccccc21)CCCN1c2ccccc2CCc2ccccc21` [Example 5, N,N'-Bis[3-(10,11-dihydro-5H-dibenzo[b,f]azepino)propyl]-N,N'-dimethylpentanediamine Maleate]: in experiment [1], the IC50 turned out to be 180 ng/mL. Further, the EC50 in experiment [2] (setting [6]) turned out to be 56 ng/mL.

As to `CN(CCCCCCN(C)CCCN1c2ccccc2CCc2ccccc21)CCCN1c2ccccc2CCc2ccccc21` [Example 6, N,N'-Bis[3-(10,11-dihydro-5H-dibenzo[b,f]azepino)propyl]-N,N'-dimethylhexanediamine Fumarate], the results for the IC50 in experiment [3] (setting [7]) and in experiment [1] were 210 ng/mL and 140 ng/mL, respectively. The EC50 in experiment [2] (setting [6]) came out at 52 ng/mL.

Consider `c1ccc2c(c1)CCc1ccccc1N2CCCNCCCCNCCCN1c2ccccc2CCc2ccccc21` [Example 8, N,N'-Bis[3-(10,11-dihydro-5H-dibenzo[b,f]azepino)propyl]butanediamine Maleate], for which the values for the IC50 in experiment [3] (setting [7]) and in experiment [1] were 48 ng/mL and 110 ng/mL, respectively. The EC50 in experiment [2] (setting [6]) was 105 ng/mL.

With `c1ccc2c(c1)CCc1ccccc1N2CCCN1CCN(CCCN2c3ccccc3CCc3ccccc32)CC1` [Example 9, 1,4-Bis[3-(10,11-dihydro-5H-dibenzo[b,f]azepino)propyl]piperazine Maleate], in experiment [1], the IC50 was greater than 5000 ng/mL. In addition, in experiment [2] (setting [6]), the EC50 was greater than 200 ng/mL.

Consider `CCN(CC)CCCC(C)Nc1ccnc2cc(Cl)ccc12` (centres unmarked) [chloroquine, reference compound], for which the IC50 in experiment [3] (setting [8]) is 7 ng/mL (≈ 0.0219 µM); in experiment [1], 160 ng/mL (≈ 0.5 µM).

As for `CNCCCN1c2ccccc2CCc2ccccc21` [desipramine, reference compound], the IC50 came out at 15000 ng/mL (≈ 56.3 µM) in experiment [3] (setting [8]) and 300 ng/mL (≈ 1.13 µM) in experiment [1]. Also, the EC50 in experiment [2] (read-out: Conc. in ng/ml for 50% Reversal of chloroquine) worked out at 35 ng/mL. Also, the “utility in reversing chloroquine resistance” value in experiment [5] is “shown to have utility in reversing chloroquine resistance”.
